Test results: the supplement of paper PMC10307832

Assays:
Test in all cases: relative viability (nuclei count vs DMSO), 5 days (fraction); higher = more cells survive
[1] = compound: Cn1cncc1[C@@](N)(c1ccc(Cl)cc1)c1ccc2c(c1)c(-c1cccc(Cl)c1)cc(=O)n2C [Tipifarnib] + O=C(CCCCCCC(=O)Nc1ccccc1)NO [Vorinostat] (partner 1 µM)
Outline: (§1)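 Nuclei were stained with Hoechst during a one-step fixation (final 0.05% Triton X-100, 1% formaldehyde, 1 ug/ml Hoechst) carried out 5 days after dosing, then counted on 4× images. The cells, lung cancer lines in 1536-well plates, had been dosed by pin tool the day after seeding with one drug alone or a fixed anchor-drug dose plus five library-drug doses (not always all listed) in √10 steps. Relative viability is the nuclei count in treated wells divided by that in vehicle wells, and each value is the median of duplicate plates.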

[2] = compound: Cn1cncc1[C@@](N)(c1ccc(Cl)cc1)c1ccc2c(c1)c(-c1cccc(Cl)c1)cc(=O)n2C [Tipifarnib] + Cc1nc(NC(=O)N2CCC[C@H]2C(N)=O)sc1-c1ccnc(C(C)(C)C(F)(F)F)c1 [Alpelisib] (partner 2 µM)
Outline: as §1

[3] = compound: Cn1cncc1[C@@](N)(c1ccc(Cl)cc1)c1ccc2c(c1)c(-c1cccc(Cl)c1)cc(=O)n2C [Tipifarnib] + CC1(C)CCC(c2ccc(Cl)cc2)=C(CN2CCN(c3ccc(C(=O)NS(=O)(=O)c4ccc(N[C@H](CCN5CCOCC5)CSc5ccccc5)c(S(=O)(=O)C(F)(F)F)c4)cc3)CC2)C1 [Navitoclax] (partner 0.5 µM)
Outline: as §1

[4] = compound: Cn1cncc1[C@@](N)(c1ccc(Cl)cc1)c1ccc2c(c1)c(-c1cccc(Cl)c1)cc(=O)n2C [Tipifarnib] + C[C@]1(O)C[C@@H](c2nc(-c3ccc4ccc(-c5ccccc5)nc4c3)c3c(N)nccn32)C1 [Linsitinib] (partner 1 µM)
Outline: as §1

In the case of LC-2-ad, the relative viability ([1]; first compound 0.01 µM) is reported as 0.634, the relative viability ([1]; first compound 0.03162 µM) is reported as 0.505 and the relative viability ([1]; first compound 0.1 µM) is reported as 0.42. For the same cell line, the relative viability ([1]; first compound 0.3162 µM) was 0.336, the relative viability ([1]; first compound 1 µM) was 0.305 and the relative viability ([2]; first compound 0.01 µM) was 0.829. For the same cell line, the relative viability ([2]; first compound 0.03162 µM) was 0.54, the relative viability ([2]; first compound 0.1 µM) was 0.375 and the relative viability ([2]; first compound 0.3162 µM) was 0.411. It also gave a relative viability ([2]; first compound 1 µM) of 0.321, a relative viability ([3]; first compound 0.01 µM) of 0.413 and a relative viability ([3]; first compound 0.03162 µM) of 0.296. For the same cell line, the relative viability ([3]; first compound 0.1 µM) was 0.258, the relative viability ([3]; first compound 0.3162 µM) was 0.216 and the relative viability ([3]; first compound 1 µM) was 0.201. The relative viability ([4]; first compound 0.01 µM) was 0.756, the relative viability ([4]; first compound 0.03162 µM) was 0.705 and the relative viability ([4]; first compound 0.1 µM) was 0.487. It also gave a relative viability ([4]; first compound 0.3162 µM) of 0.448 and a relative viability ([4]; first compound 1 µM) of 0.369.
Work on HCC-15 yielded a relative viability ([1]; first compound 0.01 µM) of 0.833, a relative viability ([1]; first compound 0.03162 µM) of 0.701 and a relative viability ([1]; first compound 0.1 µM) of 0.673. It also gave a relative viability ([1]; first compound 0.3162 µM) of 0.589, a relative viability ([1]; first compound 1 µM) of 0.53 and a relative viability ([2]; first compound 0.01 µM) of 0.827. For the same cell line, the relative viability ([2]; first compound 0.03162 µM) was 0.646, the relative viability ([2]; first compound 0.1 µM) was 0.584 and the relative viability ([2]; first compound 0.3162 µM) was 0.451. The relative viability ([2]; first compound 1 µM) was 0.367, the relative viability ([3]; first compound 0.01 µM) was 0.66 and the relative viability ([3]; first compound 0.03162 µM) was 0.618. For the same cell line, the relative viability ([3]; first compound 0.1 µM) was 0.555, the relative viability ([3]; first compound 0.3162 µM) was 0.335 and the relative viability ([3]; first compound 1 µM) was 0.334. It also gave a relative viability ([4]; first compound 0.01 µM) of 0.78, a relative viability ([4]; first compound 0.03162 µM) of 0.751 and a relative viability ([4]; first compound 0.1 µM) of 0.627. The relative viability ([4]; first compound 0.3162 µM) was 0.544 and the relative viability ([4]; first compound 1 µM) was 0.548.
NCI-H2405 was tested, and the relative viability ([1]; first compound 0.01 µM) was 1.12, the relative viability ([1]; first compound 0.03162 µM) was 0.967 and the relative viability ([1]; first compound 0.1 µM) was 0.817. It also gave a relative viability ([1]; first compound 0.3162 µM) of 0.881, a relative viability ([1]; first compound 1 µM) of 0.547 and a relative viability ([2]; first compound 0.01 µM) of 0.863. It also gave a relative viability ([2]; first compound 0.03162 µM) of 0.832, a relative viability ([2]; first compound 0.1 µM) of 0.7 and a relative viability ([2]; first compound 0.3162 µM) of 0.718. For the same cell line, the relative viability ([2]; first compound 1 µM) was 0.72, the relative viability ([3]; first compound 0.01 µM) was 1.01 and the relative viability ([3]; first compound 0.03162 µM) was 0.86. For the same cell line, the relative viability ([3]; first compound 0.1 µM) was 0.961, the relative viability ([3]; first compound 0.3162 µM) was 0.8 and the relative viability ([3]; first compound 1 µM) was 0.537. It also gave a relative viability ([4]; first compound 0.01 µM) of 0.952, a relative viability ([4]; first compound 0.03162 µM) of 0.885 and a relative viability ([4]; first compound 0.1 µM) of 0.845. It also gave a relative viability ([4]; first compound 0.3162 µM) of 0.821 and a relative viability ([4]; first compound 1 µM) of 0.79.
Work on LXF-289 yielded a relative viability ([1]; first compound 0.01 µM) of 0.775, a relative viability ([1]; first compound 0.03162 µM) of 0.755 and a relative viability ([1]; first compound 0.1 µM) of 0.665. The relative viability ([1]; first compound 0.3162 µM) was 0.59, the relative viability ([1]; first compound 1 µM) was 0.332 and the relative viability ([2]; first compound 0.01 µM) was 1.05. For the same cell line, the relative viability ([2]; first compound 0.03162 µM) was 1.05, the relative viability ([2]; first compound 0.1 µM) was 0.988 and the relative viability ([2]; first compound 0.3162 µM) was 0.889. The relative viability ([2]; first compound 1 µM) was 0.983, the relative viability ([3]; first compound 0.01 µM) was 0.936 and the relative viability ([3]; first compound 0.03162 µM) was 0.959. For the same cell line, the relative viability ([3]; first compound 0.1 µM) was 0.87, the relative viability ([3]; first compound 0.3162 µM) was 0.829 and the relative viability ([3]; first compound 1 µM) was 0.856. For the same cell line, the relative viability ([4]; first compound 0.01 µM) was 0.989, the relative viability ([4]; first compound 0.03162 µM) was 0.951 and the relative viability ([4]; first compound 0.1 µM) was 0.865. The relative viability ([4]; first compound 0.3162 µM) was 0.876 and the relative viability ([4]; first compound 1 µM) was 0.897.
Cell Line CAL-12T has a relative viability ([1]; first compound 0.01 µM) of 0.701, a relative viability ([1]; first compound 0.03162 µM) of 0.519 and a relative viability ([1]; first compound 0.1 µM) of 0.454. It also gave a relative viability ([1]; first compound 0.3162 µM) of 0.324, a relative viability ([1]; first compound 1 µM) of 0.29 and a relative viability ([2]; first compound 0.01 µM) of 1.33. The relative viability ([2]; first compound 0.03162 µM) was 0.851, the relative viability ([2]; first compound 0.1 µM) was 0.555 and the relative viability ([2]; first compound 0.3162 µM) was 0.417. For the same cell line, the relative viability ([2]; first compound 1 µM) was 0.693, the relative viability ([3]; first compound 0.01 µM) was 1.21 and the relative viability ([3]; first compound 0.03162 µM) was 1.1. The relative viability ([3]; first compound 0.1 µM) was 0.768, the relative viability ([3]; first compound 0.3162 µM) was 0.526 and the relative viability ([3]; first compound 1 µM) was 0.716. For the same cell line, the relative viability ([4]; first compound 0.01 µM) was 0.812, the relative viability ([4]; first compound 0.03162 µM) was 0.606 and the relative viability ([4]; first compound 0.1 µM) was 0.616. The relative viability ([4]; first compound 0.3162 µM) was 0.387 and the relative viability ([4]; first compound 1 µM) was 0.403.
Work on COR-L23 yielded a relative viability ([1]; first compound 0.01 µM) of 0.541, a relative viability ([1]; first compound 0.03162 µM) of 0.34 and a relative viability ([1]; first compound 0.1 µM) of 0.316. The relative viability ([1]; first compound 0.3162 µM) was 0.221, the relative viability ([1]; first compound 1 µM) was 0.252 and the relative viability ([2]; first compound 0.01 µM) was 0.808. The relative viability ([2]; first compound 0.03162 µM) was 0.525, the relative viability ([2]; first compound 0.1 µM) was 0.431 and the relative viability ([2]; first compound 0.3162 µM) was 0.373. For the same cell line, the relative viability ([2]; first compound 1 µM) was 0.338, the relative viability ([3]; first compound 0.01 µM) was 1.15 and the relative viability ([3]; first compound 0.03162 µM) was 0.804. It also gave a relative viability ([3]; first compound 0.1 µM) of 0.679, a relative viability ([3]; first compound 0.3162 µM) of 0.492 and a relative viability ([3]; first compound 1 µM) of 0.556. For the same cell line, the relative viability ([4]; first compound 0.01 µM) was 1.01, the relative viability ([4]; first compound 0.03162 µM) was 0.628 and the relative viability ([4]; first compound 0.1 µM) was 0.614. For the same cell line, the relative viability ([4]; first compound 0.3162 µM) was 0.374 and the relative viability ([4]; first compound 1 µM) was 0.409.
Cell Line NCI-H1755 has a relative viability ([1]; first compound 0.01 µM) of 0.75, a relative viability ([1]; first compound 0.03162 µM) of 0.764 and a relative viability ([1]; first compound 0.1 µM) of 0.781. The relative viability ([1]; first compound 0.3162 µM) was 0.739, the relative viability ([1]; first compound 1 µM) was 0.596 and the relative viability ([2]; first compound 0.01 µM) was 0.916. It also gave a relative viability ([2]; first compound 0.03162 µM) of 0.848, a relative viability ([2]; first compound 0.1 µM) of 0.868 and a relative viability ([2]; first compound 0.3162 µM) of 0.804. The relative viability ([2]; first compound 1 µM) was 0.808, the relative viability ([3]; first compound 0.01 µM) was 1.02 and the relative viability ([3]; first compound 0.03162 µM) was 0.971. For the same cell line, the relative viability ([3]; first compound 0.1 µM) was 0.968, the relative viability ([3]; first compound 0.3162 µM) was 0.776 and the relative viability ([3]; first compound 1 µM) was 0.851. For the same cell line, the relative viability ([4]; first compound 0.01 µM) was 0.995, the relative viability ([4]; first compound 0.03162 µM) was 0.957 and the relative viability ([4]; first compound 0.1 µM) was 0.928. The relative viability ([4]; first compound 0.3162 µM) was 0.913 and the relative viability ([4]; first compound 1 µM) was 0.897.
For NCI-H1437, the relative viability ([1]; first compound 0.01 µM) was 0.837, the relative viability ([1]; first compound 0.03162 µM) was 0.796 and the relative viability ([1]; first compound 0.1 µM) was 0.747. The relative viability ([1]; first compound 0.3162 µM) was 0.646, the relative viability ([1]; first compound 1 µM) was 0.601 and the relative viability ([2]; first compound 0.01 µM) was 1.02. For the same cell line, the relative viability ([2]; first compound 0.03162 µM) was 1.02, the relative viability ([2]; first compound 0.1 µM) was 0.931 and the relative viability ([2]; first compound 0.3162 µM) was 0.76. It also gave a relative viability ([2]; first compound 1 µM) of 0.688, a relative viability ([3]; first compound 0.01 µM) of 1.14 and a relative viability ([3]; first compound 0.03162 µM) of 1.07. The relative viability ([3]; first compound 0.1 µM) was 1.06, the relative viability ([3]; first compound 0.3162 µM) was 1.03 and the relative viability ([3]; first compound 1 µM) was 0.927. The relative viability ([4]; first compound 0.01 µM) was 1.15, the relative viability ([4]; first compound 0.03162 µM) was 0.993 and the relative viability ([4]; first compound 0.1 µM) was 1.04. For the same cell line, the relative viability ([4]; first compound 0.3162 µM) was 0.816 and the relative viability ([4]; first compound 1 µM) was 0.698.
